The record followed here is US20260250318A1, “COMPOSITIONS AND METHODS FOR CROSSING THE BLOOD BRAIN BARRIER” (VOYAGER THERAPEUTICS, INC., priority 2022, published 2026).

Non-standard residues stand in square brackets, D forms with d. Residues, ends and D or L forms follow the SMILES beside them. *: point of attachment. Biotin = O=C1N[C@H]2[C@H](CS[C@H]2CCCCC(=O)*)N1; pS = N[C@@H](COP(=O)(O)O)C(=O)O

The target of assay [1] is T1, ALPL (Homo sapiens, UniProt P05186).
T1 sequence (P05186 18-501): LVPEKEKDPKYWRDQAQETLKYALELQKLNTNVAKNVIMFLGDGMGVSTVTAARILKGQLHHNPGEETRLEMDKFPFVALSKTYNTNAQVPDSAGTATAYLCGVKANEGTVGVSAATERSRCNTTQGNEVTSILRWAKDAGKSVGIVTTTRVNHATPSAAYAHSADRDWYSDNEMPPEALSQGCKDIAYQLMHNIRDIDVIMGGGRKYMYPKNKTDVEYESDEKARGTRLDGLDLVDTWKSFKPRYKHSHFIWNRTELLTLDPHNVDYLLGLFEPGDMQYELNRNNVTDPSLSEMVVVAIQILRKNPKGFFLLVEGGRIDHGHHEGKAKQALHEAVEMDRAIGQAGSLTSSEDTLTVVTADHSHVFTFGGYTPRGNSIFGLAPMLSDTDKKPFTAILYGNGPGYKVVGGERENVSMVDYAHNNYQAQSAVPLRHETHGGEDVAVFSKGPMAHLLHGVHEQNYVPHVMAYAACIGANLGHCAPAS
In words: SPR (Biacore 8K) binding of peptide ligands to ALPL. To be noted: for binding to ALPL by SPR, His-tagged ALPL captured on chip: 50 μM peptides or 250 nM capsids flowed over; for binding to ALPL by SPR, his-tagged ALPL captured on chip: peptides 0 to 50 μM. As for the experimental part:
Binding and interaction between the peptides and the ALPL receptor were measured by Surface Plasmon Resonance (SPR) on a Biacore 8K instrument. The biotinylated peptides in Table 37 were captured on the streptavidin biosensor chip and 1000 nM of ALPL and buffer were passed over the peptides to monitor binding. […] His-tagged ALPL was then captured on the chip pre-immobilized with anti-His antibody, and 50 μM of the peptides in Table 37 or 250 nM of the AAV9 control capsid, the TTM-001 capsid variant (SEQ ID NO: 981), or the TTM-002 capsid variant (SEQ ID NO: 982) were flowed over the ALPL to check for binding. […] The longer peptides derived from TTM-002,
were also flowed over the his-tagged ALPL captured on the CM5 sensor chip pre-immobilized with anti-His antibody.
Binding and interaction between the phosho-peptides and the ALPL receptor were also measured by SPR. The biotinylated and phosphorylated peptides in Table 38 were captured on the streptavidin biosensor chip along with their non-phosphorylated counterparts, […] (SEQ ID NO: 4500) and […] (SEQ ID NO: 4503). ALPL and buffer were passed over the peptides to monitor binding. The concentration of ALPL used ranged from 0 to 500 nM (0 nM, 125 nM, 250 nM, and 500 nM).
In a second experiment, his-tagged ALPL was first captured on a CM5 sensor chip pre-immobilized with anti-His antibody. The phosphorylated peptides in Table 38 and their non-phosphorylated counterparts, […] (SEQ ID NO: 4500) and […] (SEQ ID NO: 4503) and buffer were flowed over the ALPL protein to monitor binding.

In another assay the target is T2, His-tagged ALPL (Homo sapiens, UniProt P05186).
T2 sequence (P05186 18-501): T1 sequence (P05186 18-501)
In words: Bio Layer Interferometry (BLI)/Octet binding of peptides to ALPL. The following applies: for binding to ALPL by BLI/Octet: ALPL 1.56 to 100 nM. The source says:
Binding of the phospho-peptides of SEQ ID NO: 4512 and SEQ ID NO: 4513 to ALPL was also investigated using Bio Layer Interferometry (BLI)/Octet.

Assay [2] concerns the target T1, ALPL. In words: biochemical. The assay is classed as binding. The following applies: for binding to ALPL by ELISA: ALPL coated on wells. The source says:
Binding of the phospho-peptides of SEQ ID NO: 4512 and 4513 along with their non-phosphorylated counterparts, […] (SEQ ID NO: 4500) and […]

Assay [3] addresses human ALPL (soluble protein used in the ELISA and SPR of Example 14) (human) (UniProt P05186). Kind of assay: SPR (Biacore), antibody captured on the chip, 1.6 to 1000 nM of human ALPL flowed over.

Turning to “GSGSRLMNPLIDQYLYYLSKTINGHDSPHKSGQNQQTLKFSVAGPSNMAV [longer peptide derived from TTM-002]”, in the assay with ALPL [1], the “binding to ALPL by SPR, His-tagged ALPL captured on chip” value is listed as “no binding to ALPL was observed”.
On the same count and under the same terms, as for “GSGSLYYLSKTINGHDSPHKSGQNQQTLKF [longer peptide derived from TTM-002]”, the entry is “no binding to ALPL was observed”.
With `NCCCC[C@H](NC(=O)[C@H](Cc1c[nH]cn1)NC(=O)[C@@H]1CCCN1C(=O)[C@H](COP(=O)(O)O)NC(=O)[C@H](CC(=O)O)NC(=O)[C@H](Cc1c[nH]cn1)NC(=O)CNC(=O)[C@H](CC(N)=O)NC(=O)[C@H](CO)NC(=O)CNC(=O)[C@H](CO)NC(=O)CNC(=O)CCCC[C@@H]1SC[C@@H]2NC(=O)N[C@@H]21)C(=O)N[C@@H](CO)C(=O)NCC(N)=O` [SEQ ID NO: 4512] (Biotin-GSGSNGHD[pS]PHKSG-NH2), on ALPL [1], the “binding to ALPL by SPR, his-tagged ALPL captured on chip” value was “low signal with dose dependency”. Also, on His-tagged ALPL, binding was put at a Kd of 112 nM, the koff came to 0.0026 s⁻¹, the kon came to 23000 M⁻¹ s⁻¹ and the “binding to ALPL by BLI/Octet” value is listed as “demonstrated binding to ALPL”. For the same compound, on ALPL [2], the EC50 is 763 nM and the “binding to ALPL by ELISA” value is “dose-dependent binding to ALPL”.
Turning to `CC[C@H](C)[C@H](NC(=O)[C@@H](NC(=O)[C@H](CCCCN)NC(=O)[C@H](CO)NC(=O)CNC(=O)[C@H](CO)NC(=O)CNC(=O)CCCC[C@@H]1SC[C@@H]2NC(=O)N[C@@H]21)[C@@H](C)O)C(=O)N[C@@H](CC(N)=O)C(=O)NCC(=O)N[C@@H](Cc1c[nH]cn1)C(=O)N[C@@H](CC(=O)O)C(=O)N[C@@H](COP(=O)(O)O)C(=O)N1CCC[C@H]1C(=O)N[C@@H](Cc1c[nH]cn1)C(=O)N[C@@H](CCCCN)C(=O)N[C@@H](CO)C(=O)NCC(=O)N[C@@H](CCC(N)=O)C(=O)N[C@@H](CC(N)=O)C(=O)N[C@@H](CCC(N)=O)C(N)=O` [SEQ ID NO: 4513] (Biotin-GSGSKTINGHD[pS]PHKSGQNQ-NH2), at ALPL [1], the “binding to ALPL by SPR, his-tagged ALPL captured on chip” value is reported as “low signal with dose dependency”. At His-tagged ALPL, the Kd was determined as 20.7 nM, the off-rate constant (koff) turned out to be 0.00067 s⁻¹, the kon amounted to 32000 M⁻¹ s⁻¹ and the “binding to ALPL by BLI/Octet” value is listed as “demonstrated binding to ALPL”. At His-tagged ALPL (pH 5.5), the “binding to ALPL at a pH of 5.5” value was “no binding was observed”. Besides, on ALPL [2], the EC50 is 4290 nM and the “binding to ALPL by ELISA” value is listed as “dose-dependent binding to ALPL”.
In assay [3], “Human Alkaline Phosphatase/ALPL Antibody, clone B4-78 (MAB1448-SP)” came in with a Kd of 215 nM, a koff of 0.0015 s⁻¹ and a kon of 6800 M⁻¹ s⁻¹.
